What was measured:
[1] = tested on: Human acute T lymphocytic leukemia cell (Molt4); experiment: Tumor cell proliferation inhibition (CellTiter-Meiluncell luminescent cell viability assay); settings: MOLT-4, 96 h; for inhibition at 0.01 µM: read-out: Inhibition Rate at 10 nM (%); for inhibition at 0.5 µM: read-out: Inhibition Rate at 500 nM (%)
Method: (§1) The tumor cells used herein were cultured in a cell culture medium listed in table 2 at 37°C in an incubator with 5% CO2. Prior to experimentation, all cell lines used were correctly identified by STR profiling, and tested negative for mycoplasma contamination using a mycoplasma detection kit through routine screenings.
(§2) The IC50 values of the compounds of the present disclosure (including the compounds in Table 1 and Examples) were determined using the CellTiter-Meiluncell Luminescent Cell Viability Assay Kit from Dalian Meilun Biotech Co., Ltd. The detailed procedure is as follows: Tumor cells were seeded in 96-well cell culture plates at the densities specified in Table 3. On the following day, the test compounds of the present disclosure were subjected to serial dilution. The dilution can be performed according to one of the following two methods: • (1) The first dilution method: The test compounds of the present disclosure (including the compounds in Table 1 and Examples) were subjected to 5-fold serial dilutions starting from a highest concentration of 2000 µM, resulting in a total of 9 concentrations from high to low (2000, 400, 80, 16, 3.2, 0.64, 0.128, 0.0256, 0.00512 µM). Subsequently, 0.5 µL of the test compound dilution was transferred into the 96-well plate containing the cells, with each well containing 100 µL of cell culture medium. […] Into the 96-well plate, the diluted test compounds and corresponding detection reagents were added, resulting in final test compound concentrations of 500 nM and 10 nM, respectively. The experimental procedure is described below using the diluted 2 µM test compound as an example.
(§3) 0.5 µL of the aforementioned diluted compound of the present disclosure (including the compounds in Table 1 and Examples) was added to the seeded cells in 100 µL of medium, yielding a final test compound concentration of 10 nM. After the cells were treated with the compounds of the present disclosure for a specified period, the cell viability assay reagent was added to the culture medium according to the kit's instructions to determine cell viability. […] All controls were treated using the same procedure as the compounds of the present disclosure. The growth inhibition curves for the compounds of the present disclosure were plotted using Prism GraphPad software, and the IC50 values were calculated therefrom.

[2] = biological target: T1, human Cereblon WT GST-tagged protein (Homo sapiens, UniProt Q96SW2); experiment: CRBN-binding affinity, HTRF (CEREBLON BINDING kit); settings: for inhibition at 0.5 µM: read-out: Inhibition Rate at 0.5 µM (%); for inhibition at 2 µM: read-out: Inhibition Rate at 2 µM (%)
T1 construct: purchased CISBIO 64BDCRBNPEH

[3] = tested on: Human multiple myeloma cell (MM.1S); experiment: Tumor cell proliferation inhibition (CellTiter-Meiluncell luminescent cell viability assay); settings: for inhibition at 0.01 µM / inhibition at 0.5 µM: Homo sapiens, MM1.S, 96 h; for inhibition at 0.01 µM: read-out: Inhibition Rate at 10 nM (%); for inhibition at 0.5 µM: read-out: Inhibition Rate at 500 nM (%)
Method: as §1, §2, §3

[4] = tested on: Human T lymphocytic leukemia cell line: Jurkat; experiment: as above; settings: 96 h; for inhibition at 0.01 µM: read-out: Inhibition Rate at 10 nM (%); for inhibition at 0.5 µM: read-out: Inhibition Rate at 500 nM (%)
[5] = biological target: T2, WEE1 (Homo sapiens, UniProt P30291+Q96SW2); experiment: Western blot, degradation of substrate protein in hPBMCs; type: cell-based; settings: 24 hours treatment, compounds at 50 nM and 500 nM (concentration behind the class not stated)
T2 construct: effects of the compounds of the present disclosure on the expression of target proteins in cells; endogenous in cells; host or cells: human PBMCs (Milecell Biotechnologies)

[6] = biological target: T3, IKZF2 (Homo sapiens, UniProt Q96SW2+Q9UKS7); experiment: as above; type: cell-based; settings: 24 hours treatment, compounds at 50 nM and 500 nM (concentration behind the class not stated)
T3 construct: effects of the compounds of the present disclosure on the expression of target proteins in cells; endogenous in cells; host or cells: human PBMCs (Milecell Biotechnologies)

[7] = biological target: T4, CK1α (Homo sapiens, UniProt P48729+Q96SW2); experiment: as above; type: cell-based; settings: 24 hours treatment, compounds at 50 nM and 500 nM (concentration behind the class not stated)
T4 construct: effects of the compounds of the present disclosure on the expression of target proteins in cells; endogenous in cells; host or cells: human PBMCs (Milecell Biotechnologies)

[8] = biological target: T5, IKZF3 (Homo sapiens, UniProt Q96SW2+Q9UKT9); experiment: as above; type: cell-based; settings: 24 hours treatment, compounds at 50 nM and 500 nM (concentration behind the class not stated)
T5 construct: effects of the compounds of the present disclosure on the expression of target proteins in cells; endogenous in cells; host or cells: human PBMCs (Milecell Biotechnologies)

[9] = biological target: T6, IKZF1 (Homo sapiens, UniProt Q13422+Q96SW2); experiment: as above; type: cell-based; settings: 24 hours treatment, compounds at 50 nM and 500 nM (concentration behind the class not stated)
T6 construct: effects of the compounds of the present disclosure on the expression of target proteins in cells; endogenous in cells; host or cells: human PBMCs (Milecell Biotechnologies)

[10] = tested on: GSPT1; experiment: as above; type: cell-based, Human; settings: 24 hours treatment, compounds at 50 nM and 500 nM (concentration behind the class not stated)
[11] = tested on: Human multiple myeloma peripheral blood B lymphocyte cell (RPMI-8226); experiment: Tumor cell proliferation inhibition (CellTiter-Meiluncell luminescent cell viability assay); settings: RPMI-8226, 96 h; for inhibition at 0.01 µM: read-out: Inhibition Rate at 10 nM (%); for inhibition at 0.5 µM: read-out: Inhibition Rate at 500 nM (%)
[12] = tested on: Human myeloid monocytic leukemia cell (MV-4-11); experiment: as above; settings: MV4-11, 96 h; for inhibition at 0.01 µM: read-out: Inhibition Rate at 10 nM (%); for inhibition at 0.5 µM: read-out: Inhibition Rate at 500 nM (%)
[13] = tested on: Human acute myeloid leukemia cell line: Kasumi-1; experiment: as above; settings: Kasumi 1, 96 h; for inhibition at 0.01 µM: read-out: Inhibition Rate at 10 nM (%); for inhibition at 0.5 µM: read-out: Inhibition Rate at 500 nM (%)
Method: as §1, §2, §3

[14] = tested on: Human T cell acute lymphoblastic leukemia cell (CCRF-CEM); experiment: as above; settings: 96 h; for inhibition at 0.01 µM: read-out: Inhibition Rate at 10 nM (%); for inhibition at 0.5 µM: read-out: Inhibition Rate at 500 nM (%)
[15] = tested on: Human breast cancer cell (MCF-7); experiment: as above; settings: MCF7, 96 h; for inhibition at 0.01 µM: read-out: Inhibition Rate at 10 nM (%); for inhibition at 0.5 µM: read-out: Inhibition Rate at 500 nM (%)

T5 sequence (Q9UKT9 whole entry): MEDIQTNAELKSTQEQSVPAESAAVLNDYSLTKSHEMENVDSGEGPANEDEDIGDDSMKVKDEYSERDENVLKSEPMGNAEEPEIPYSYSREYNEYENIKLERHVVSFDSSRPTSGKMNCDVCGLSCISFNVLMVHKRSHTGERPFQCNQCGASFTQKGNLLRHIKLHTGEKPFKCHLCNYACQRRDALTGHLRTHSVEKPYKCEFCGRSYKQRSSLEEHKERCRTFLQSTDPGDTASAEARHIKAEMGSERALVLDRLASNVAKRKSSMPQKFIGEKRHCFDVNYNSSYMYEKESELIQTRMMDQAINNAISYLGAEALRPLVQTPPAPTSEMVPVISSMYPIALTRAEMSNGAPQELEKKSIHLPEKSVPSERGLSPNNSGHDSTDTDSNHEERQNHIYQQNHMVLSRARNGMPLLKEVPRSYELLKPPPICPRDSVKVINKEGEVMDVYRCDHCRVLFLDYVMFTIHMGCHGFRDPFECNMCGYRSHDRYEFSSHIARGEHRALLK
T5 sequence (Q96SW2 whole entry): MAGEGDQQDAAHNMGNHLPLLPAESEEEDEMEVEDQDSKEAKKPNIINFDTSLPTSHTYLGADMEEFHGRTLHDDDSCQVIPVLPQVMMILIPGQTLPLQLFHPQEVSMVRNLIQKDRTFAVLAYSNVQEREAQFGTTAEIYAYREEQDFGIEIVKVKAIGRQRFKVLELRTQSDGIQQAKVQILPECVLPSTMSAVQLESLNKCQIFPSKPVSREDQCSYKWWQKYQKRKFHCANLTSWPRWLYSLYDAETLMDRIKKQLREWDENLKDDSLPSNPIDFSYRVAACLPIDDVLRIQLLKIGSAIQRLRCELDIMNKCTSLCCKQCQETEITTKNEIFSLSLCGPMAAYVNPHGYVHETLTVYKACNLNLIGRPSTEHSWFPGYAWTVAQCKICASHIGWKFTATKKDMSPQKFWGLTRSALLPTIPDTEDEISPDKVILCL
T5 sequence (Q16531 whole entry partner): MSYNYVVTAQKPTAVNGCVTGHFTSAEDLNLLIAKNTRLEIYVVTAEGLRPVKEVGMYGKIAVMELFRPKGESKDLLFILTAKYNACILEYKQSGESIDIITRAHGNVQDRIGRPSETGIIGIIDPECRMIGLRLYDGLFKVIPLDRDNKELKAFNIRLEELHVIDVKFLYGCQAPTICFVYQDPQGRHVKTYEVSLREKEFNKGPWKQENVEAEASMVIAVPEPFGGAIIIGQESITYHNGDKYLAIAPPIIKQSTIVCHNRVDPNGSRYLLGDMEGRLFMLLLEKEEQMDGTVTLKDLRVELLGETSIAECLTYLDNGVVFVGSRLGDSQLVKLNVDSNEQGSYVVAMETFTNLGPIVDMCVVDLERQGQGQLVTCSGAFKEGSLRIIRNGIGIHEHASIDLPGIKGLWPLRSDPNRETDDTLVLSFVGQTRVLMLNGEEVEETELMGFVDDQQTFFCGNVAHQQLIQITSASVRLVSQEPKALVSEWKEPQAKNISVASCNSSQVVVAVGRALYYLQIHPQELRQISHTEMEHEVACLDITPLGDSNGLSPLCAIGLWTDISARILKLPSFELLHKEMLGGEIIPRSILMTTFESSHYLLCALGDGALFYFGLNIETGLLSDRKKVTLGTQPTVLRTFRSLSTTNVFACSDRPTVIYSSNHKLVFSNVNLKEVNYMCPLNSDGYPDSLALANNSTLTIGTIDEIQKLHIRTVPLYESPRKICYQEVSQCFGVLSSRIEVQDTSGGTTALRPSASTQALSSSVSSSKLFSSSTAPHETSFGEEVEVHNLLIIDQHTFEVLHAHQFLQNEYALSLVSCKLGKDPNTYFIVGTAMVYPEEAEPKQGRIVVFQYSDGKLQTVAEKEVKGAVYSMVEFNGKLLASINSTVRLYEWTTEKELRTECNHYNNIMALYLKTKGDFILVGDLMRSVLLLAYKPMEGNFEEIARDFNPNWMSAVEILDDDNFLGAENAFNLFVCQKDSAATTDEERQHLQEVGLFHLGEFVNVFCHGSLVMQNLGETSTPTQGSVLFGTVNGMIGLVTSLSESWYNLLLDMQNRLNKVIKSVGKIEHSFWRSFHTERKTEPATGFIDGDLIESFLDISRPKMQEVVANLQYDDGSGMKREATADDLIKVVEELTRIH
T6 sequence (Q13422 whole entry): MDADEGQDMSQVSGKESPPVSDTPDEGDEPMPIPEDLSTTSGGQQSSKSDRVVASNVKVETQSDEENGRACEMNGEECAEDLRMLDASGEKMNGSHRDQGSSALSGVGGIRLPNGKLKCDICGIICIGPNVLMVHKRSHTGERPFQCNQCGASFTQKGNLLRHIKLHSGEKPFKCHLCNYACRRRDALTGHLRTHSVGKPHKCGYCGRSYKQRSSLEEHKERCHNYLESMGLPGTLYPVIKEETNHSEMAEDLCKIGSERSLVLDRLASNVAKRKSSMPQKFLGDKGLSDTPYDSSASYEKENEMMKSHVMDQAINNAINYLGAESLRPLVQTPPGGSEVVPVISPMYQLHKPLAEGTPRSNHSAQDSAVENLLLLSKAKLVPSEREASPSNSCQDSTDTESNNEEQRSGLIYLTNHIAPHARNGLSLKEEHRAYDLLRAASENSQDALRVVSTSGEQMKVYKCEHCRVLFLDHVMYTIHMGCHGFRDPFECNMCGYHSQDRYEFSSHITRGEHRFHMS
T6 sequence (Q96SW2 whole entry): as the sequence (Q96SW2 whole entry) above
T6 sequence (Q16531 whole entry partner): as the sequence (Q16531 whole entry partner) above
T1 sequence (Q96SW2 whole entry): as the sequence (Q96SW2 whole entry) above
T3 sequence (Q9UKS7 whole entry): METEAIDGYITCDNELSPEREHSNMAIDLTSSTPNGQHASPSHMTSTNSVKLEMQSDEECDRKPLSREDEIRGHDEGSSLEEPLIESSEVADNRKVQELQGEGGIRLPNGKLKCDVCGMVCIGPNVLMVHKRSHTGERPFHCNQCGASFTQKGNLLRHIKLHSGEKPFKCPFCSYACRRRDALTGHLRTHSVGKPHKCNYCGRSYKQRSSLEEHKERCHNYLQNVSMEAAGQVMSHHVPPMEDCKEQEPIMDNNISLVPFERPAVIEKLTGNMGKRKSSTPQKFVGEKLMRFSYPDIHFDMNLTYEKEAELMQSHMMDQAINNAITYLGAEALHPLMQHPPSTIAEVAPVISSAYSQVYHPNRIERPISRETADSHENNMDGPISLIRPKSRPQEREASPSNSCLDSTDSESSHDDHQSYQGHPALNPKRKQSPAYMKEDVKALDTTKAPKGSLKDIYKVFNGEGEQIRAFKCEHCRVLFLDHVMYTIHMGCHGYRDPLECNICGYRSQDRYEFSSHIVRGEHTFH
T3 sequence (Q96SW2 whole entry): as the sequence (Q96SW2 whole entry) above
T3 sequence (Q16531 whole entry partner): as the sequence (Q16531 whole entry partner) above
T4 sequence (P48729 whole entry): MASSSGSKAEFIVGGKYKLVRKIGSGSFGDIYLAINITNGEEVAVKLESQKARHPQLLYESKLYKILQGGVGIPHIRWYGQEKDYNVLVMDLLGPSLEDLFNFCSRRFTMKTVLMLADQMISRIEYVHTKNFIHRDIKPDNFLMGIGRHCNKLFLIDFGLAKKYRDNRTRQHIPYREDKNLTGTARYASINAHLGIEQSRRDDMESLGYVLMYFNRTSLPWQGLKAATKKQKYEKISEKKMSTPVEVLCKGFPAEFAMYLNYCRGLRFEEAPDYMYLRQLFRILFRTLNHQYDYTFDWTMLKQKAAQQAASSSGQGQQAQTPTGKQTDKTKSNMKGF
T4 sequence (Q96SW2 whole entry): as the sequence (Q96SW2 whole entry) above
T4 sequence (Q16531 whole entry partner): as the sequence (Q16531 whole entry partner) above
T2 sequence (P30291 whole entry): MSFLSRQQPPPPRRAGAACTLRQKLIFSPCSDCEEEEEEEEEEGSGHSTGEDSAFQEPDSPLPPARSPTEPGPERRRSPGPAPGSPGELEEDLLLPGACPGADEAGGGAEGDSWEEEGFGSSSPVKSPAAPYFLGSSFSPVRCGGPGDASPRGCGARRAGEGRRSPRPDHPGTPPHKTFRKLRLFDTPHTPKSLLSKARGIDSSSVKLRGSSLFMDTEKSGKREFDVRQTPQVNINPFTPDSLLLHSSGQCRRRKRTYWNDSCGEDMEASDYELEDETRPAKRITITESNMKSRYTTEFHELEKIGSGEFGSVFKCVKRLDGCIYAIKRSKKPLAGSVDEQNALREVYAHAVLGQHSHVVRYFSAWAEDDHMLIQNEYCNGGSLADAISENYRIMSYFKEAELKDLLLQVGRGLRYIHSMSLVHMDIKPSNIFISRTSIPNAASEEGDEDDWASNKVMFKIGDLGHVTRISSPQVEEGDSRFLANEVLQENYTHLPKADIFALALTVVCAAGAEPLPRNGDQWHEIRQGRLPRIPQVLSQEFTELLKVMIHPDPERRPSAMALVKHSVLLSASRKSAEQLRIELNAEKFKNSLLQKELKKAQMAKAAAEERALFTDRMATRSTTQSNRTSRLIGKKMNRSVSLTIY
T2 sequence (Q96SW2 whole entry): as the sequence (Q96SW2 whole entry) above
T2 sequence (Q16531 whole entry partner): as the sequence (Q16531 whole entry partner) above

Structure (SMILES) | inhibition at 0.01 µM [1] [%] | inhibition at 0.5 µM [1] [%] | inhibition at 0.5 µM [2] [%] | inhibition at 2 µM [2] [%] | inhibition at 0.01 µM [3] [%] | inhibition at 0.01 µM [4] [%] | inhibition at 0.5 µM [4] [%] | Wee1 substrate protein remaining % [5] | IKZF2 substrate protein remaining % [6] | CK1α substrate protein remaining % [7] | IKZF3 substrate protein remaining % [8] | IKZF 1 substrate protein remaining % [9] | GSPT1 substrate protein remaining % [10] | inhibition at 0.01 µM [11] [%] | inhibition at 0.5 µM [11] [%] | inhibition at 0.01 µM [12] [%] | inhibition at 0.5 µM [12] [%] | inhibition at 0.01 µM [13] [%] | inhibition at 0.5 µM [13] [%] | inhibition at 0.01 µM [14] [%] | other results
Cc1cc(C2CCN(Cc3ccc4c(c3)CN(C3CCC(=O)NC3=O)C4=S)CC2)cs1 (centres unmarked) [GT-08325, 3-(5-((4-(5-methylthiophen-3-yl)piperidin-1-yl)methyl)-1-thioxoisoindolin-2-yl)piperidine-2,6-dione] | 10 to 20 | 80 to 100 | 60 to 80 | 80 to 100 | 30 to 40 | -5 to 0 | 70 to 80 | A (0% ≤ substrate protein remaining % ≤ 80%) | B (80%< substrate protein remaining %≤ 100%) | A (0% ≤ substrate protein remaining % ≤ 80%) | B (80%< substrate protein remaining %≤ 100%) | B (80%< substrate protein remaining %≤ 100%) | A (0% ≤ substrate protein remaining % ≤ 80%) | 20 to 30 | 60 to 70 | 60 to 80 | 100 to 110 | 0 to 5 | 80 to 100 | 10 to 20 | inhibition at 0.5 µM [3]: 80 to 100%; inhibition at 0.5 µM [14]: 80 to 100%
Cc1cc(C2=CCN(Cc3ccc4c(c3)CN(C3CCC(=O)NC3=O)C4=S)CC2)cs1 (centres unmarked) [GT-08327, 3-(5-((4-(5-methylthiophen-3-yl)-3,6-dihydropyridin-1(2H)-yl)methyl)-1-thioxoisoindolin-2-yl)piperidine-2,6-dione] | 10 to 20 | 80 to 100 | 53 to 60 | 80 to 100 | 40 to 50 | 20 to 30 | 80 to 100 | A (0% ≤ substrate protein remaining % ≤ 80%) | A (0% ≤ substrate protein remaining % ≤ 80%) | A (0% ≤ substrate protein remaining % ≤ 80%) | A (0% ≤ substrate protein remaining % ≤ 80%) | A (0% ≤ substrate protein remaining % ≤ 80%) | A (0% ≤ substrate protein remaining % ≤ 80%) | 10 to 20 | 80 to 100 | 40 to 60 | 80 to 100 | 30 to 40 | 80 to 100 | 30 to 40 | inhibition at 0.5 µM [3]: 80 to 100%; inhibition at 0.01 µM [15]: 0 to 5%; inhibition at 0.5 µM [15]: 70 to 80%; inhibition at 0.5 µM [14]: 80 to 100%
O=C1CCC(N2Cc3cc(CN4CC=C(c5cccs5)CC4)ccc3C2=S)C(=O)N1 (centres unmarked) [GT-08171, 3-(5-((4-(thiophen-2-yl)-3,6-dihydropyridin-1(2H)-yl)methyl)-1-thioxoisoindolin-2-yl)piperidine-2,6-dione] | 80 to 100 | 80 to 100 | 60 to 80 | 80 to 100 | 50 to 60 | 40 to 50 | 80 to 100 | A (0% ≤ substrate protein remaining % ≤ 80%) | A (0% ≤ substrate protein remaining % ≤ 80%) | A (0% ≤ substrate protein remaining % ≤ 80%) | A (0% ≤ substrate protein remaining % ≤ 80%) | A (0% ≤ substrate protein remaining % ≤ 80%) | A (0% ≤ substrate protein remaining % ≤ 80%) | 20 to 30 | 80 to 100 | 60 to 80 | 80 to 100 | 30 to 40 | 80 to 100 | 70 to 80 | inhibition at 0.5 µM [3]: 80 to 100%; inhibition at 0.01 µM [15]: 20 to 30%; inhibition at 0.5 µM [15]: 70 to 80%; inhibition at 0.5 µM [14]: 80 to 100%
O=C1CCC(N2Cc3cc(CN4CCC(c5cccc(F)c5Cl)CC4)ccc3C2=S)C(=O)N1 (centres unmarked) [GT-08330, 3-(5-((4-(2-chloro-3-fluorophenyl)piperidin-1-yl)methyl)-1-thioxoisoindolin-2-yl)piperidine-2,6-dione] | -5 to 0 | 80 to 100 | 40 to 53 | 60 to 80 | 20 to 30 | -5 to 0 | 70 to 80 | A (0% ≤ substrate protein remaining % ≤ 80%) | A (0% ≤ substrate protein remaining % ≤ 80%) | A (0% ≤ substrate protein remaining % ≤ 80%) | A (0% ≤ substrate protein remaining % ≤ 80%) | A (0% ≤ substrate protein remaining % ≤ 80%) | A (0% ≤ substrate protein remaining % ≤ 80%) | 10 to 20 | 70 to 80 | 10 to 18 | 80 to 100 | 5 to 10 | 80 to 100 | 5 to 10 | inhibition at 0.5 µM [3]: 80 to 100%; inhibition at 0.01 µM [15]: 10 to 20%; inhibition at 0.5 µM [15]: 50 to 60%; inhibition at 0.5 µM [14]: 80 to 100%
O=C1CCC(N2Cc3cc(CN4CCC(c5cccs5)CC4)ccc3C2=S)C(=O)N1 (centres unmarked) [GT-08329, 3-(5-((4-(thiophen-2-yl)piperidin-1-yl)methyl)-1-thioxoisoindolin-2-yl)piperidine-2,6-dione] | 10 to 20 | 80 to 100 | 40 to 53 | 80 to 100 | 10 to 20 | 10 to 20 | 70 to 80 | A (0% ≤ substrate protein remaining % ≤ 80%) | B (80%< substrate protein remaining %≤ 100%) | A (0% ≤ substrate protein remaining % ≤ 80%) | B (80%< substrate protein remaining %≤ 100%) | B (80%< substrate protein remaining %≤ 100%) | A (0% ≤ substrate protein remaining % ≤ 80%) | 10 to 20 | 70 to 80 | -5 to 0 | 80 to 100 | 5 to 10 | 80 to 100 | 10 to 20 | Inhibition Rate at 500 nM (%) ([3]; MM.1S, 500 nM, 96 hours): la10; inhibition at 0.5 µM [14]: 80 to 100%
